According to patent US11008572B2, “Methods and compositions for modulating splicing” (SKYHAWK THERAPEUTICS, INC., priority 2017, dated 2021):

What follows are molecules tested on A-673 cells (assay: Cell viability, crystal violet staining). Conditions: Homo sapiens, A673, cell viability, read-out: A-673 IC50 (nM) Cell viability.
Format: cell-based
Description: To measure cell viability, cells were plated in 96-well plastic tissue culture plates at a density of 5×10^3 cells/well. Twenty-four hours after plating, cells were treated with various SMSMs. After 72 hours, the cell culture media were removed and plates were stained with […] of a solution containing 0.5% crystal violet and 25% methanol, rinsed with deionized water, dried overnight, and resuspended in […] citrate buffer (0.1 M sodium citrate in 50% ethanol) to assess plating efficiency. Intensity of crystal violet staining, assessed at 570 nm and quantified using a Vmax Kinetic Microplate Reader and Softmax software (Molecular Devices Corp., Menlo Park, Calif.), were directly proportional to cell number. Data were normalized to vehicle-treated cells and were presented as the mean±SE from representative experiments. SMSMs that are effective were determined for various cells lines.
A-673 cell viability […], splicing (IC50) and brain AUC/Plasma AUC of SMSMs were determined. As shown in the tables below SMSMs had high CNS exposure.
Molecule `COc1cc(-c2ccc(-c3ccc(N(C)[C@H]4C[C@]5(C)CC[C@](C)(C4)N5)nn3)c(O)c2)cc(F)n1` [compound 189, 2-(6-(((1R,3s,5S)-1,5-dimethyl-8-azabicyclo[3.2.1]octan-3-yl)(methyl)amino)pyridazin-3-yl)-5-(2-fluoro-6-methoxypyridin-4-yl)phenol] has an IC50 of 10 to 100 nM. `CN(c1ccc(-c2ccc(-c3cc(O)nc(F)c3)cc2O)nn1)[C@H]1C[C@]2(C)CC[C@](C)(C1)N2` [compound 190, 4-(4-(6-(((1R,3s,5S)-1,5-dimethyl-8-azabicyclo[3.2.1]octan-3-yl)(methyl)amino)pyridazin-3-yl)-3-hydroxyphenyl)-6-fluoropyridin-2-ol] was tested, and the IC50 was 101 to 250 nM. `CN(c1ccc(-c2cc(F)c(-c3ccn(CF)c(=O)c3)cc2O)nn1)[C@H]1C[C@]2(C)CC[C@](C)(C1)N2` [compound 193, 4-(4-(6-(((1R,3s,5S)-1,5-dimethyl-8-azabicyclo[3.2.1]octan-3-yl)(methyl)amino)pyridazin-3-yl)-2-fluoro-5-hydroxyphenyl)-1-(fluoromethyl)pyridin-2(1H)-one] was tested, and the IC50 was < 10 nM. With `CN(c1ccc(-c2ccc(-c3cc(=O)n(C)cn3)cc2O)nn1)[C@H]1C[C@]2(C)CC[C@](C)(C1)N2` [compound 194, 6-(4-(6-(((1R,3s,5S)-1,5-dimethyl-8-azabicyclo[3.2.1]octan-3-yl)(methyl)amino)pyridazin-3-yl)-3-hydroxyphenyl)-3-methylpyrimidin-4(3H)-one] the IC50 was 10 to 100 nM. For `CN(c1ccc(-c2ccc(-c3cc(C#N)n(C)c3)cc2O)nn1)[C@H]1C[C@]2(C)CC[C@](C)(C1)N2` [compound 195, 4-(4-(6-(((1R,3s,5S)-1,5-dimethyl-8-azabicyclo[3.2.1]octan-3-yl)(methyl)amino)pyridazin-3-yl)-3-hydroxyphenyl)-1-methyl-1H-pyrrole-2-carbonitrile], the IC50 was 501 to 1000 nM. Work on `CN(c1ccc(-c2ccc(-n3cnc(C#N)c3)cc2O)nn1)[C@H]1C[C@]2(C)CC[C@](C)(C1)N2` [compound 196, 1-(4-(6-(((1R,3s,5S)-1,5-dimethyl-8-azabicyclo[3.2.1]octan-3-yl)(methyl)amino)pyridazin-3-yl)-3-hydroxyphenyl)-1H-imidazole-4-carbonitrile] yielded an IC50 of 251 to 500 nM. `CN(c1ccc(-c2cc(F)c(-n3cnc(C#N)c3)cc2O)nn1)[C@H]1C[C@]2(C)CC[C@](C)(C1)N2` [compound 197, 1-(4-(6-(((1R,3s,5S)-1,5-dimethyl-8-azabicyclo[3.2.1]octan-3-yl)(methyl)amino)pyridazin-3-yl)-2-fluoro-5-hydroxyphenyl)-1H-imidazole-4-carbonitrile] was tested, and the IC50 was > 1000 nM. In the case of `CN(c1ccc(-c2cc(F)c(-c3cc(=O)n(C)cn3)cc2O)nn1)[C@H]1C[C@]2(C)CC[C@](C)(C1)N2` [compound 198, 6-(4-(6-(((1R,3s,5S)-1,5-dimethyl-8-azabicyclo[3.2.1]octan-3-yl)(methyl)amino)pyridazin-3-yl)-2-fluoro-5-hydroxyphenyl)-3-methylpyrimidin-4(3H)-one], the IC50 is reported as < 10 nM. For `CN(c1ccc(-c2ccc(-c3ccnc(C#N)c3)cc2O)nn1)[C@H]1C[C@]2(C)CC[C@](C)(C1)N2` [compound 199], the IC50 was 10 to 100 nM. With `CN(c1ccc(-c2ccc(-n3cc(C#N)cn3)cc2O)nn1)[C@H]1C[C@]2(C)CC[C@](C)(C1)N2` [compound 200, 1-(4-(6-(((1R,3s,5S)-1,5-dimethyl-8-azabicyclo[3.2.1]octan-3-yl)(methyl)amino)pyridazin-3-yl)-3-hydroxyphenyl)-1H-pyrazole-4-carbonitrile] the IC50 was 101 to 250 nM. `CCN(c1ccc(-c2ccc(-c3cn[nH]c3)cc2O)nn1)[C@H]1C[C@]2(C)CC[C@](C)(C1)N2` [compound 201, 2-(6-(((1R,3s,5S)-1,5-dimethyl-8-azabicyclo[3.2.1]octan-3-yl)(ethyl)amino)pyridazin-3-yl)-5-(1H-pyrazol-4-yl)phenol] was tested, and the IC50 was 10 to 100 nM. `CCN(c1ccc(-c2cc(F)c(-c3cn[nH]c3)cc2O)nn1)[C@H]1C[C@]2(C)CC[C@](C)(C1)N2` [compound 202, 2-(6-(((1R,3s,5S)-1,5-dimethyl-8-azabicyclo[3.2.1]octan-3-yl)(ethyl)amino)pyridazin-3-yl)-4-fluoro-5-(1H-pyrazol-4-yl)phenol] was tested, and the IC50 was 10 to 100 nM. Work on `CN(c1ccc(-c2ccc(-n3ccc(C#N)c3)cc2O)nn1)[C@H]1C[C@]2(C)CC[C@](C)(C1)N2` [compound 203, 1-(4-(6-(((1R,3s,5S)-1,5-dimethyl-8-azabicyclo[3.2.1]octan-3-yl)(methyl)amino)pyridazin-3-yl)-3-hydroxyphenyl)-1H-pyrrole-3-carbonitrile] yielded an IC50 of 10 to 100 nM. Work on `CN(c1ccc(-c2ccc(-c3cc(F)nc(F)c3)cc2O)nn1)[C@H]1C[C@]2(C)CC[C@](C)(C1)N2` [compound 204, 5-(2,6-difluoropyridin-4-yl)-2-(6-(((1R,3s,5S)-1,5-dimethyl-8-azabicyclo[3.2.1]octan-3-yl)(methyl)amino)pyridazin-3-yl)phenol] yielded an IC50 of 100 to 500 nM. In the case of `[2H]C([2H])([2H])Oc1cc(-c2ccc(-c3ccc(N(C)[C@H]4C[C@]5(C)CC[C@](C)(C4)N5)nn3)c(O)c2)cnn1` [compound 205, 2-(6-(((1R,3s,5S)-1,5-dimethyl-8-azabicyclo[3.2.1]octan-3-yl)(methyl)amino)pyridazin-3-yl)-5-(6-(methoxy-d3)pyridazin-4-yl)phenol], the IC50 is reported as < 10 nM. `[2H]C([2H])([2H])Oc1cc(-c2cc(O)c(-c3ccc(N(C)[C@H]4C[C@]5(C)CC[C@](C)(C4)N5)nn3)cc2F)cnn1` [compound 206, 2-(6-(((1R,3s,5S)-1,5-dimethyl-8-azabicyclo[3.2.1]octan-3-yl)(methyl)amino)pyridazin-3-yl)-4-fluoro-5-(6-(methoxy-d3)pyridazin-4-yl)phenol] was tested, and the IC50 was < 10 nM. For `[2H]C([2H])([2H])Oc1cc(-c2ccc(-c3ccc(N(C)[C@H]4C[C@]5(C)CC[C@](C)(C4)N5)nn3)c(O)c2)cc(F)n1` [compound 207, 2-(6-(((1R,3s,5S)-1,5-dimethyl-8-azabicyclo[3.2.1]octan-3-yl)(methyl)amino)pyridazin-3-yl)-5-(2-fluoro-6-(methoxy-d3)pyridin-4-yl)phenol], the IC50 was 10 to 100 nM. `[2H]C([2H])([2H])Oc1cc(-c2cc(O)c(-c3ccc(N(C)[C@H]4C[C@]5(C)CC[C@](C)(C4)N5)nn3)cc2F)cc(F)n1` [compound 208, 2-(6-(((1R,3s,5S)-1,5-dimethyl-8-azabicyclo[3.2.1]octan-3-yl)(methyl)amino)pyridazin-3-yl)-4-fluoro-5-(2-fluoro-6-(methoxy-d3)pyridin-4-yl)phenol] was tested, and the IC50 was > 1000 nM. `COc1cccc(-c2ccc(-c3ccc(N(C)[C@H]4C[C@]5(C)CC[C@](C)(C4)N5)nn3)c(O)c2)c1` [compound 209, 4-(6-(((1R,3s,5S)-1,5-dimethyl-8-azabicyclo[3.2.1]octan-3-yl)(methyl)amino)pyridazin-3-yl)-3′-methoxy-[1,1′-biphenyl]-3-ol] was tested, and the IC50 was > 1000 nM. Work on `COc1cc(-c2ccc(-c3ccc(N(C)[C@H]4C[C@]5(C)CC[C@](C)(C4)N5)nn3)c(O)c2)ccc1F` [compound 210, 4-(6-(((1R,3s,5S)-1,5-dimethyl-8-azabicyclo[3.2.1]octan-3-yl)(methyl)amino)pyridazin-3-yl)-4′-fluoro-3′-methoxy-[1,1′-biphenyl]-3-ol] yielded an IC50 of 251 to 500 nM. For `COc1cncc(-c2ccc(-c3ccc(N(C)[C@H]4C[C@]5(C)CC[C@](C)(C4)N5)nn3)c(O)c2)c1` [compound 211, 2-(6-(((1R,3s,5S)-1,5-dimethyl-8-azabicyclo[3.2.1]octan-3-yl)(methyl)amino)pyridazin-3-yl)-5-(5-methoxypyridin-3-yl)phenol], the IC50 was 251 to 500 nM. For `COc1cc(-c2cc(O)c(-c3ccc(N(C)[C@H]4C[C@]5(C)CC[C@](C)(C4)N5)nn3)cc2F)cnn1` [compound 213, 2-(6-(((1R,3s,5S)-1,5-dimethyl-8-azabicyclo[3.2.1]octan-3-yl)(methyl)amino)pyridazin-3-yl)-4-fluoro-5-(6-methoxypyridazin-4-yl)phenol], the IC50 was < 10 nM.

Same assay, conditions: Homo sapiens, A673, cell viability, read-out: A-673 IC50 (nM), Cell viability
With `Cc1nnnn1-c1ccc(-c2ccc(N(C)[C@@H]3C[C@H]4CC[C@@H](C3)N4)nn2)c(O)c1` [compound 233, 2-(6-(((1R,3s,5S)-8-azabicyclo[3.2.1]octan-3-yl)(methyl)amino)pyridazin-3-yl)-5-(5-methyl-1H-tetrazol-1-yl)phenol] the IC50 was > 1000 nM. With `CN(c1ccc(-c2ccc(-n3cnnc3)cc2O)nn1)[C@@H]1C[C@H]2CC[C@@H](C1)N2` [compound 235, 2-(6-(((1R,3s,5S)-8-azabicyclo[3.2.1]octan-3-yl)(methyl)amino)pyridazin-3-yl)-5-(4H-1,2,4-triazol-4-yl)phenol] the IC50 was > 1000 nM. For `Cc1ccc(-c2ccc(-c3ccc(N(C)[C@@H]4C[C@H]5CC[C@@H](C4)N5)nn3)c(O)c2)cn1` [compound 236, 2-(6-(((1R,3s,5S)-8-azabicyclo[3.2.1]octan-3-yl)(methyl)amino)pyridazin-3-yl)-5-(6-methylpyridin-3-yl)phenol], the IC50 was 101 to 250 nM. `Cc1ncc(-c2ccc(-c3ccc(N(C)[C@@H]4C[C@H]5CC[C@@H](C4)N5)nn3)c(O)c2)cn1` [compound 237, 2-(6-(((1R,3s,5S)-8-azabicyclo[3.2.1]octan-3-yl)(methyl)amino)pyridazin-3-yl)-5-(2-methylpyrimidin-5-yl)phenol] showed an IC50 of 501 to 1000 nM. For `Cc1ncn(-c2ccc(-c3ccc(N(C)[C@@H]4C[C@H]5CC[C@@H](C4)N5)nn3)c(O)c2)n1` [compound 244, 2-(6-(((1R,3s,5S)-8-azabicyclo[3.2.1]octan-3-yl)(methyl)amino)pyridazin-3-yl)-5-(3-methyl-1H-1,2,4-triazol-1-yl)phenol], the IC50 was 101 to 250 nM.

Same assay, conditions: Homo sapiens, A673, read-out: A-673 cell viability (IC50)
In the case of `CN(c1ccc(-c2cc(F)c(-c3ccn(CF)c(=O)c3)cc2O)nn1)[C@H]1C[C@]2(C)CC[C@](C)(C1)N2` [compound 193, 4-(4-(6-(((1R,3s,5S)-1,5-dimethyl-8-azabicyclo[3.2.1]octan-3-yl)(methyl)amino)pyridazin-3-yl)-2-fluoro-5-hydroxyphenyl)-1-(fluoromethyl)pyridin-2(1H)-one], the IC50 is reported as < 3 nM.
